Experimental data taken from the NIST ThermoML archive (doi:10.1016/j.jct.2016.04.003).
± gives the expanded uncertainty stated by the source.

Assay: xn = mol fraction of the nth substance listed
Details: for surface tension liquid-gas: Drop volume; for viscosity / speed of sound / mass density: 99 kPa, Liquid; for viscosity: Capillary tube (Ostwald / Ubbelohde) method; for speed of sound: Frequency=3 MHz, Sing-around technique in a fixed-path interferometer; for mass density: Vibrating tube method

CCC[n+]1ccccc1.F[B-](F)(F)F [1-propylpyridinium tetrafluoroborate] + O
Details	mass density [kg/m3]	speed of sound [m/s]	surface tension liquid-gas [mN/m]	viscosity [mPa·s]
313.15 K, x1 = 0.0185	1026 ± 1.1	1559 ± 1.3	–	–
313.15 K, x1 = 0.028	–	–	56 ± 0.6	–
313.15 K, x1 = 0.0287	1041.1 ± 1	1568.7 ± 1.2	–	–
313.15 K, x1 = 0.0466	1063.1 ± 1	1580.6 ± 1.2	–	–
313.15 K, x1 = 0.0492	–	–	–	0.843 ± 0.068
313.15 K, x1 = 0.0551	–	–	53.7 ± 0.6	–
313.15 K, x1 = 0.0766	1091.4 ± 1	1593 ± 1.3	–	–
313.15 K, x1 = 0.0952	–	–	–	1.122 ± 0.09
313.15 K, x1 = 0.0964	1105.8 ± 1	1598.5 ± 1.3	–	–
313.15 K, x1 = 0.1008	–	–	51.7 ± 0.6	–
313.15 K, x1 = 0.1522	–	–	50.5 ± 0.6	–
313.15 K, x1 = 0.1948	–	–	–	1.755 ± 0.14
313.15 K, x1 = 0.1965	–	–	49.9 ± 0.6	–
313.15 K, x1 = 0.2011	1154.3 ± 1	1610.4 ± 1.3	–	–
313.15 K, x1 = 0.2588	–	–	–	2.326 ± 0.19
313.15 K, x1 = 0.2858	1176.6 ± 1	1610.4 ± 1.4	–	–
313.15 K, x1 = 0.2947	–	–	49.8 ± 0.6	–
313.15 K, x1 = 0.3451	–	–	49.6 ± 0.6	–
313.15 K, x1 = 0.3891	–	–	–	4.172 ± 0.34
313.15 K, x1 = 0.3968	–	–	49.5 ± 0.6	–
313.15 K, x1 = 0.3993	1196.3 ± 1	1607.7 ± 1.5	–	–
313.15 K, x1 = 0.4779	–	–	49.5 ± 0.6	–
313.15 K, x1 = 0.4894	–	–	–	7.412 ± 0.6
313.15 K, x1 = 0.4979	1208.2 ± 1.1	1604.7 ± 1.6	–	–
313.15 K, x1 = 0.5772	1215.5 ± 1.1	1602.4 ± 1.7	–	–
313.15 K, x1 = 0.5827	–	–	49.6 ± 0.6	–
313.15 K, x1 = 0.5942	–	–	–	10.92 ± 0.88
313.15 K, x1 = 0.6015	1217.5 ± 1.1	1601.9 ± 1.7	–	–
313.15 K, x1 = 0.6695	1222.5 ± 1.2	1600.6 ± 1.8	–	–
313.15 K, x1 = 0.6846	–	–	49.6 ± 0.6	–
313.15 K, x1 = 0.6952	–	–	–	16.2 ± 1.3
313.15 K, x1 = 0.7309	1226.5 ± 1.2	1599.9 ± 1.9	–	–
313.15 K, x1 = 0.7771	1229.4 ± 1.3	1599.7 ± 2	–	–
313.15 K, x1 = 0.7861	–	–	49.6 ± 0.7	–
313.15 K, x1 = 0.7903	–	–	–	23.05 ± 1.9
313.15 K, x1 = 0.8395	1232.9 ± 1.4	1600.3 ± 2.1	–	–
313.15 K, x1 = 0.8862	–	–	49.6 ± 0.7	–
313.15 K, x1 = 0.8982	–	–	–	35.15 ± 2.8
313.15 K, x1 = 0.9054	1236.7 ± 1.4	1601.8 ± 2.2	–	–
313.15 K, x1 = 0.9425	–	–	49.7 ± 0.7	–
313.15 K, x1 = 0.943	–	–	–	43.35 ± 3.5
313.15 K, x1 = 0.9633	1240.1 ± 1.5	1604.2 ± 2.3	–	–
313.15 K, x1 = 1	1242.4 ± 1.6	1606.3 ± 2.3	49.8 ± 0.7	56.02 ± 4.5
323.15 K, x1 = 0.0185	1020.8 ± 1.1	1563.2 ± 1.2	–	–
323.15 K, x1 = 0.028	–	–	54.5 ± 0.6	–
323.15 K, x1 = 0.0287	1035.6 ± 1	1569.4 ± 1.2	–	–
323.15 K, x1 = 0.0466	1057 ± 1	1576.8 ± 1.2	–	–
323.15 K, x1 = 0.0492	–	–	–	0.714 ± 0.057
323.15 K, x1 = 0.0551	–	–	52.2 ± 0.6	–
323.15 K, x1 = 0.0766	1084.7 ± 1	1583.8 ± 1.2	–	–
323.15 K, x1 = 0.0952	–	–	–	0.889 ± 0.071
323.15 K, x1 = 0.0964	1098.9 ± 1	1586.7 ± 1.3	–	–
323.15 K, x1 = 0.1008	–	–	50.4 ± 0.5	–
323.15 K, x1 = 0.1522	–	–	49.2 ± 0.5	–
323.15 K, x1 = 0.1948	–	–	–	1.379 ± 0.11
323.15 K, x1 = 0.1965	–	–	48.6 ± 0.5	–
323.15 K, x1 = 0.2011	1146.9 ± 1	1591.5 ± 1.3	–	–
323.15 K, x1 = 0.2588	–	–	–	1.808 ± 0.14
323.15 K, x1 = 0.2858	1169.2 ± 1	1589.7 ± 1.4	–	–
323.15 K, x1 = 0.2947	–	–	48.7 ± 0.6	–
323.15 K, x1 = 0.3451	–	–	48.6 ± 0.6	–
323.15 K, x1 = 0.3891	–	–	–	3.105 ± 0.25
323.15 K, x1 = 0.3968	–	–	48.5 ± 0.6	–
323.15 K, x1 = 0.3993	1189 ± 1	1586 ± 1.5	–	–
323.15 K, x1 = 0.4779	–	–	48.5 ± 0.6	–
323.15 K, x1 = 0.4894	–	–	–	5.345 ± 0.43
323.15 K, x1 = 0.4979	1200.9 ± 1.1	1582.6 ± 1.6	–	–
323.15 K, x1 = 0.5772	1208.2 ± 1.1	1580 ± 1.7	–	–
323.15 K, x1 = 0.5827	–	–	48.7 ± 0.6	–
323.15 K, x1 = 0.5942	–	–	–	8.242 ± 0.66
323.15 K, x1 = 0.6015	1210.1 ± 1.1	1579.4 ± 1.7	–	–
323.15 K, x1 = 0.6695	1215.1 ± 1.2	1577.7 ± 1.8	–	–
323.15 K, x1 = 0.6846	–	–	48.7 ± 0.6	–
323.15 K, x1 = 0.6952	–	–	–	12.05 ± 0.97
323.15 K, x1 = 0.7309	1219.2 ± 1.2	1576.7 ± 1.9	–	–
323.15 K, x1 = 0.7771	1222.1 ± 1.3	1576.2 ± 2	–	–
323.15 K, x1 = 0.7861	–	–	48.8 ± 0.7	–
323.15 K, x1 = 0.7903	–	–	–	15.97 ± 1.3
323.15 K, x1 = 0.8395	1225.8 ± 1.3	1576.6 ± 2.1	–	–
323.15 K, x1 = 0.8862	–	–	48.9 ± 0.7	–
323.15 K, x1 = 0.8982	–	–	–	23.99 ± 1.9
323.15 K, x1 = 0.9054	1229.6 ± 1.4	1578.1 ± 2.2	–	–
323.15 K, x1 = 0.9425	–	–	48.9 ± 0.7	–
323.15 K, x1 = 0.943	–	–	–	28.38 ± 2.3
323.15 K, x1 = 0.9633	1233 ± 1.5	1580.8 ± 2.3	–	–
323.15 K, x1 = 1	1235.3 ± 1.6	1583.3 ± 2.3	49 ± 0.7	36.99 ± 3
